Biological target: human PD-L1 (Homo sapiens (Human), UniProt Q9NZQ7)
Assay: T cell activation luciferase reporter cell culture system (T Cell Activation Assay)
Type: cell-based
Settings: luciferase reporter assay; PD-L1 aAPC/CHO-K1 cells with PD-1 effector Jurkat T cells

Chain of human PD-L1 (Q9NZQ7 19-290): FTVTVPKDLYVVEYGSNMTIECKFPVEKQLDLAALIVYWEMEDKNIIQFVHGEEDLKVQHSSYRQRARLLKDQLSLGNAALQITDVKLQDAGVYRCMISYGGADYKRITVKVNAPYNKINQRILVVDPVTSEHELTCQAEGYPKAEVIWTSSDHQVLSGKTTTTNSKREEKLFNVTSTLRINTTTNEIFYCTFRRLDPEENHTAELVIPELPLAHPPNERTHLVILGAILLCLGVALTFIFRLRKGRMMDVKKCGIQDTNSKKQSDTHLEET

| EC50 [nM] | Compound |
| --- | --- |
| 143 | COc1nc(N[C@H]2CCc3c(-c4nccc(-c5ccc6c(CNC[C@@H]7CCC(=O)N7)cn(C)c6n5)c4Cl)cccc32)c(C(F)(F)F)nc1CNC[C@@H]1CCC(=O)N1 [Example 532, (S)-5-((((6-(3-Chloro-2-((S)-1-((6-methoxy-5-(((((S)-5-oxopyrrolidin-2-yl)methyl)amino)methyl)-3-(trifluoromethyl)pyrazin-2-yl)amino)-2,3-dihydro-1H-inden-4-yl)pyridin-4-yl)-1-methyl-1H-pyrrolo[2,3-b]pyridin-3-yl)methyl)amino)methyl)pyrrolidin-2-one] |
| 13.5 | COc1cc(-c2nccc(-c3cccc(-c4ccc(CNC5CCN(C(=O)CO)CC5)c(OC)n4)c3Cl)c2Cl)ccc1CNC1CCN(C(C)=O)CC1 [Example 533, 1-(4-(((6-(3-(2-(4-(((1-Acetylpiperidin-4-yl)amino)methyl)-3-methoxyphenyl)-3-chloropyridin-4-yl)-2-chlorophenyl)-2-methoxypyridin-3-yl)methyl)amino)piperidin-1-yl)-2-hydroxyethan-1-one] |
| 56.7 | COc1cc(-c2nccc(-c3cccc(-c4ccc(CNCCCF)c(OC)n4)c3Cl)c2Cl)ccc1CNCCCF [Example 534, N-((6-(2-Chloro-3-(3-chloro-2-(4-(((3-fluoropropyl)amino)methyl)-3-methoxyphenyl)pyridin-4-yl)phenyl)-2-methoxypyridin-3-yl)methyl)-3-fluoropropan-1-amine] |
| 1060 | COc1cc(-c2ncnc(-c3cccc(-c4ccc(CN5CC6(CNC(=O)C6)C5)c(OC)n4)c3Cl)c2C)ccc1CN1CC2(CNC(=O)C2)C1 [Example 535, 2-((6-(2-Chloro-3-(6-(3-methoxy-4-((7-oxo-2,6-diazaspiro[3.4]octan-2-yl)methyl)phenyl)-5-methylpyrimidin-4-yl)phenyl)-2-methoxypyridin-3-yl)methyl)-2,6-diazaspiro[3.4]octan-7-one] |
| 41.6 | COc1cc(-c2nccc(-c3cccc(-c4ccc(CNC5CCN(C(C)=O)CC5)c(OC)n4)c3Cl)c2Cl)ccc1CNCCCF [Example 537, 1-(4-(((6-(2-Chloro-3-(3-chloro-2-(4-(((3-fluoropropyl)amino)methyl)-3-methoxyphenyl)pyridin-4-yl)phenyl)-2-methoxypyridin-3-yl)methyl)amino)piperidin-1-yl)ethan-1-one] |
| 31.8 | COc1cc(-c2nccc(-c3cccc(-c4ccc(CNC5CCN(C(=O)CO)CC5)c(OC)n4)c3Cl)c2Cl)ccc1CN[C@H]1CC[C@H](O)CC1 [Example 539, 1-(4-(((6-(2-Chloro-3-(3-chloro-2-(4-((((1r,4r)-4-hydroxycyclohexyl)amino)methyl)-3-methoxyphenyl)pyridin-4-yl)phenyl)-2-methoxypyridin-3-yl)methyl)amino)piperidin-1-yl)-2-hydroxyethan-1-one] |
| 21.3 | COc1nc(O[C@H]2CCc3c(-c4nccc(-c5ccc6c(CNC[C@@H]7CCC(=O)N7)cn(C)c6n5)c4Cl)cccc32)c(C(F)(F)F)cc1CNC[C@@H]1CCC(=O)N1 [Example 545, (S)-5-((((6-(3-Chloro-2-((S)-1-((6-methoxy-5-(((((S)-5-oxopyrrolidin-2-yl)methyl)amino)methyl)-3-(trifluoromethyl)pyridin-2-yl)oxy)-2,3-dihydro-1H-inden-4-yl)pyridin-4-yl)-1-methyl-1H-pyrrolo[2,3-b]pyridin-3-yl)methyl)amino)methyl)pyrrolidin-2-one] |
| 53 | COc1nc(-c2ccnc(-c3cccc4c3CC[C@@H]4Oc3nc(OC)c(CNC[C@H](C)O)cc3C(F)(F)F)c2Cl)ccc1CN1CC2(CNC(=O)C2)C1 [Example 553, 2-((3′-Chloro-2′-((S)-1-((5-((((S)-2-hydroxypropyl)amino)methyl)-6-methoxy-3-(trifluoromethyl)pyridin-2-yl)oxy)-2,3-dihydro-1H-inden-4-yl)-6-methoxy-[2,4′-bipyridin]-5-yl)methyl)-2,6-diazaspiro[3.4]octan-7-one] |
| 103 | COc1cc(-c2ncnc(-c3cccc(-c4ccc(CN5CC6(CNC(=O)C6)C5)c(OC)n4)c3Cl)c2Cl)ccc1CN1CC2(CNC(=O)C2)C1 [Example 554, 2-((6-(2-chloro-3-(5-chloro-6-(3-methoxy-4-((7-oxo-2,6-diazaspiro[3.4]octan-2-yl)methyl)phenyl)pyrimidin-4-yl)phenyl)-2-methoxypyridin-3-yl)methyl)-2,6-diazaspiro[3.4]octan-7-one] |
| 378 | COc1cc(-c2nccc(-c3cccc(-c4ccc5c(CNCC6CCOCC6)cn(C)c5n4)c3Cl)c2Cl)ccc1CNC1CCN(C(C)=O)CC1 [Example 557, 1-(4-((4-(3-chloro-4-(2-chloro-3-(1-methyl-3-((((tetrahydro-2H-pyran-4-yl)methyl)amino)methyl)-1H-pyrrolo[2,3-b]pyridin-6-yl)phenyl)pyridin-2-yl)-2-methoxybenzyl)amino)piperidin-1-yl)ethan-1-one] |
| ≥ 10000 | COc1cc(-c2nccc(-c3cccc(-c4ccc5c(CNC6CCS(=O)(=O)CC6)cn(C)c5n4)c3Cl)c2Cl)ccc1CNC1CCN(C(C)=O)CC1 [Example 558, 1-(4-((4-(3-Chloro-4-(2-chloro-3-(3-(((1,1-dioxidotetrahydro-2H-thiopyran-4-yl)amino)methyl)-1-methyl-1H-pyrrolo[2,3-b]pyridin-6-yl)phenyl)pyridin-2-yl)-2-methoxybenzyl)amino)piperidin-1-yl)ethan-1-one] |
| ≥ 10000 | COc1nc(-c2cccc(-c3ccnc(-c4ccc5c(c4)S(=O)(=O)CCN(C)C5)c3Cl)c2Cl)ccc1CNC[C@@H]1CCC(=O)N1 [Example 561, (S)-5-((((6-(2-Chloro-3-(3-chloro-2-(4-methyl-1,1-dioxido-2,3,4,5-tetrahydrobenzo[f][1,4]thiazepin-8-yl)pyridin-4-yl)phenyl)-2-methoxypyridin-3-yl)methyl)amino)methyl)pyrrolidin-2-one] |
| ≥ 10000 | COc1cc(-c2ncnc(-c3cccc(-c4ccc(CN5CCN(C(C)=O)CC5)c(OC)n4)c3Cl)c2Cl)ccc1CN1CCN(C(C)=O)CC1 [Example 562, 1-(4-((6-(3-(6-(4-((4-acetylpiperazin-1-yl)methyl)-3-methoxyphenyl)-5-chloropyrimidin-4-yl)-2-chlorophenyl)-2-methoxypyridin-3-yl)methyl)piperazin-1-yl)ethan-1-one] |
| 187 | COc1cc(-c2ncnc(-c3cccc(-c4ccc(CN5CC6(CC(O)C6)C5)c(OC)n4)c3Cl)c2Cl)ccc1CN1CC2(CC(O)C2)C1 [Example 568, 2-((6-(2-chloro-3-(5-chloro-6-(4-((6-hydroxy-2-azaspiro[3.3]heptan-2-yl)methyl)-3-methoxyphenyl)pyrimidin-4-yl)phenyl)-2-methoxypyridin-3-yl)methyl)-2-azaspiro[3.3]heptan-6-ol] |
| 87.5 | COc1cc(-c2nccc(-c3cccc(-c4ccc(CN5CC6(CC(=O)N(C)C6)C5)c(OC)n4)c3Cl)c2Cl)ccc1CN1CC2(CC(=O)N(C)C2)C1 [Example 571, 2-(4-(3-chloro-4-(2-chloro-3-(6-methoxy-5-((6-methyl-7-oxo-2,6-diazaspiro[3.4]octan-2-yl)methyl)pyridin-2-yl)phenyl)pyridin-2-yl)-2-methoxybenzyl)-6-methyl-2,6-diazaspiro[3.4]octan-7-one] |
| ≥ 10000 | COc1cc(-c2nccc(-c3cccc(-c4ccc(CN5CC6(CNC(=O)C6)C5)c(OC)n4)c3C(F)(F)F)c2Cl)ccc1CN1CC2(CNC(=O)C2)C1 [Example 576, 2-((6-(3-(3-chloro-2-(3-methoxy-4-((7-oxo-2,6-diazaspiro[3.4]octan-2-yl)methyl)phenyl)pyridin-4-yl)-2-(trifluoromethyl)phenyl)-2-methoxypyridin-3-yl)methyl)-2,6-diazaspiro[3.4]octan-7-one] |
| ≥ 10000 | COc1cc(-c2nccc(-c3cccc(-c4ccc(CN5CC6(C5)CN(C(C)=O)C6)c(OC)n4)c3C(F)(F)F)c2Cl)ccc1CN1CC2(C1)CN(C(C)=O)C2 [Example 577, 1-(6-((6-(3-(2-(4-((6-Acetyl-2,6-diazaspiro[3.3]heptan-2-yl)methyl)-3-methoxyphenyl)-3-chloropyridin-4-yl)-2-(trifluoromethyl)phenyl)-2-methoxypyridin-3-yl)methyl)-2,6-diazaspiro[3.3]heptan-2-yl)ethan-1-one] |
| ≥ 10000 | COc1cc(-c2nccc(-c3cccc(-c4ccc(CNC[C@H](C)O)c(OC)n4)c3C(F)(F)F)c2Cl)ccc1CNC[C@H](C)O [Example 580, (S)-1-(((6-(3-(3-Chloro-2-(4-((((S)-2-hydroxypropyl)amino)methyl)-3-methoxyphenyl)pyridin-4-yl)-2-(trifluoromethyl)phenyl)-2-methoxypyridin-3-yl)methyl)amino)propan-2-ol] |
| 43.1 | COc1cc(-c2ncnc(-c3cccc(-c4ccc(CNCCO)c(OC)n4)c3Cl)c2Cl)ccc1CNCCO [Example 581, 2-(((6-(2-chloro-3-(5-chloro-6-(4-(((2-hydroxyethyl)amino)methyl)-3-methoxyphenyl)pyrimidin-4-yl)phenyl)-2-methoxypyridin-3-yl)methyl)amino)ethan-1-ol] |
| ≥ 10000 | CCOc1cc(-c2nccc(-c3cccc(-c4ccc(CNC5CCN(C(C)=O)CC5)c(OC)n4)c3Cl)c2Cl)cn2nc(CN[C@H]3CC[C@H](O)CC3)nc12 [Example 583, 1-(4-(((6-(2-Chloro-3-(3-chloro-2-(8-ethoxy-2-((((1r,4r)-4-hydroxycyclohexyl)amino)methyl)-[1,2,4]triazolo[1,5-a]pyridin-6-yl)pyridin-4-yl)phenyl)-2-methoxypyridin-3-yl)methyl)amino)piperidin-1-yl)ethan-1-one] |
| ≥ 10000 | CCOc1cc(-c2nccc(-c3cccc(-c4ccc(CNC5CCN(C(C)=O)CC5)c(OC)n4)c3Cl)c2Cl)cn2nc(CNC3CCN(C(C)=O)CC3)nc12 [Example 585, 1-(4-(((6-(4-(3-(5-(((1-Acetylpiperidin-4-yl)amino)methyl)-6-methoxypyridin-2-yl)-2-chlorophenyl)-3-chloropyridin-2-yl)-8-ethoxy-[1,2,4]triazolo[1,5-a]pyridin-2-yl)methyl)amino)piperidin-1-yl)ethan-1-one] |

Source: patent publication US20240246964A1 (Arbutus Biopharma Corporation, priority 2021, published 2024)
